The values below come from ChEMBL document CHEMBL4342417, “Design, synthesis and evaluation of novel phenothiazine derivatives as inhibitors of breast cancer stem cells” (Eur J Med Chem, 2019).

The subject of series [1] is SUM-159-PT. The series can be described thus: Antiproliferative activity against human SUM159 cells assessed as reduction in cell viability incubated for 2 days by MTT assay. The series is classed as functional, cell-based. The settings on record: 48 h.
The test system of series [2] is MDA-MB-231. The series can be described thus: Antiproliferative activity against human MDA-MB-231 cells assessed as reduction in cell viability incubated for 2 days by MTT assay. It is filed as functional, cell-based. To be noted: MDA-MB-231, 48 h.
Series [3] deals with MCF7. The experiment in a line: Antiproliferative activity against human MCF7 cells assessed as reduction in cell viability incubated for 2 days by MTT assay. The series is classed as functional, cell-based. The settings on record: MCF7, 48 h. A general note: Tetrazolium dyes change colour on reduction, which living cells bring about.
The subject of a further series is SK-BR-3. The series can be described thus: Antiproliferative activity against human SKBR3 cells assessed as reduction in cell viability incubated for 2 days by MTT assay. The series is classed as functional, cell-based. To be noted: SK-BR-3, 48 h.
Series [4] has as its system SUM-159-PT. The experiment in a line: Potency index, ratio of IC50 of TFP to IC50 of compound for antiproliferative activity against human SUM159 cells assessed as reduction in cell viability incubated for 2 days by MTT assay. The series is classed as functional.
In series [5] the test system is MCF7. The series can be described thus: Potency index, ratio of IC50 of TFP to IC50 of compound for antiproliferative activity against human MCF7 cells assessed as reduction in cell viability incubated for 2 days by MTT assay. It is filed as functional.
A further series has as its system KG-1a. The experiment in a line: Antiproliferative activity against human KG1a cells assessed as reduction in cell viability incubated for 2 days by MTT assay. The series is classed as functional, cell-based. The settings on record: 48 h.
The nature of series [6]: Toxicity in zebra fish assessed as survival rate at 250 uM observed for 24 hrs. To be noted: zebrafish. Also noted: species or system Danio rerio.
For series [7], the system named is MCF7. The experiment in a line: Inhibition of colony formation in human MCF7 cells at 0.18 uM incubated for 14 days with replacement of medium for every 3 or 4 days by crystal violet staining based visual analysis relative to control. The series is classed as functional.
Series [8] deals with MCF7. The series can be described thus: Inhibition of colony formation in human MCF7 cells at 0.37 uM incubated for 14 days with replacement of medium for every 3 or 4 days by crystal violet staining based visual analysis relative to control. It is filed as functional.
In series [9] the test system is MCF7. The series can be described thus: Inhibition of colony formation in human MCF7 cells at 0.74 uM incubated for 14 days with replacement of medium for every 3 or 4 days by crystal violet staining based visual analysis relative to control. It is filed as functional.
Series [10] relates to MCF7. The series can be described thus: Inhibition of colony formation in human MCF7 cells incubated for 14 days with replacement of medium for every 3 or 4 days by crystal violet staining based visual analysis. It is filed as functional, cell-based.
Series [11] has as its system SUM-159-PT. The series can be described thus: Inhibition of mammosphere formation in human SUM159 cells incubated for 10 days by microscopic analysis. The series is classed as functional, cell-based.
The subject of series [12] is SUM-159-PT. The experiment in a line: Inhibition of mammosphere formation in human SUM159 cells assessed as reduction in number of mammosphere at 0.5 uM incubated for 10 days by microscopic analysis. The series is classed as functional.
In series [13] the test system is SUM-159-PT. The experiment in a line: Inhibition of mammosphere formation in human SUM159 cells assessed as reduction in number of mammosphere at 1 uM incubated for 10 days by microscopic analysis. It is filed as functional.
Series [14] deals with SUM-159-PT. The series can be described thus: Inhibition of mammosphere formation in human SUM159 cells assessed as reduction in number of mammosphere at 2 uM incubated for 10 days by microscopic analysis. It is filed as functional.
Series [15] has as its system MDA-MB-231. The series can be described thus: Inhibition of cell migration of human MDA-MB-231 cells incubated for 48 hrs by scratch wound healing assay. The series is classed as functional, cell-based.
Series [16] deals with Transcription factor p65 (Homo sapiens) (UniProt Q04206). The experiment in a line: Inhibition of LPS-stimulated NF-kappaB-p65 in human MDA-MB-231 cells incubated for 24 hrs by dual luciferase reporter gene assay. It is filed as cell-based.
Transcription factor p65 (Homo sapiens), sequence (Q04206 whole entry): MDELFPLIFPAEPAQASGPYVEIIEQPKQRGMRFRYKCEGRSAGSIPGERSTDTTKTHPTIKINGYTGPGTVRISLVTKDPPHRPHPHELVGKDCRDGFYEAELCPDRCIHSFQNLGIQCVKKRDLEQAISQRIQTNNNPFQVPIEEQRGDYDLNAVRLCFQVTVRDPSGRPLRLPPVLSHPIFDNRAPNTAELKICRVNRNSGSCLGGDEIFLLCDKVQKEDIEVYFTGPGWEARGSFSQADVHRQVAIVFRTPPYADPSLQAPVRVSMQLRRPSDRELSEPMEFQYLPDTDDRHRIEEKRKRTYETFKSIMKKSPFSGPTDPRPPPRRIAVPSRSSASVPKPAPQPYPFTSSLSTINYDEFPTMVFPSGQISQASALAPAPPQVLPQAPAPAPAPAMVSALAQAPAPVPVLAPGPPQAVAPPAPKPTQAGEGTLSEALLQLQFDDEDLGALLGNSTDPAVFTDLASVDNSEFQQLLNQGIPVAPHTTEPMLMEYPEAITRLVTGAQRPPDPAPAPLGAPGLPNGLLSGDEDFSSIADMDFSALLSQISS
In series [17] the test system is MDA-MB-231. The series can be described thus: Downregulation of NF-kappaB-p65 expression in human MDA-MB-231 cells incubated for 48 hrs by Western blot analysis. It is filed as functional, cell-based. Background: A western blot detects proteins with antibodies after separation by electrophoresis.
The test system of series [18] is MDA-MB-231. The experiment in a line: Potency index, ratio of IC50 of TFP to IC50 of compound for antiproliferative activity against human MDA-MB-231 cells assessed as reduction in cell viability incubated for 2 days by MTT assay. The series is classed as functional.
Series [19] relates to MCF7. The experiment in a line: Inhibition of colony formation in human MCF7 cells at 0.20 uM incubated for 14 days with replacement of medium for every 3 or 4 days by crystal violet staining based visual analysis relative to control. It is filed as functional.
Series [20] deals with MDA-MB-231. The series can be described thus: Inhibition of cell migration of human MDA-MB-231 cells at 0.40 and 0.80 uM incubated for 48 hrs by scratch wound healing assay. The series is classed as functional, cell-based.
For series [21], the target named is Transcription factor p65 (Homo sapiens) (UniProt Q04206). The experiment in a line: Inhibition of LPS-stimulated NF-kappaB-p65 in human MDA-MB-231 cells at 0.40 and 0.80 uM incubated for 24 hrs by dual luciferase reporter gene assay. The series is classed as cell-based. On the technique in general: Reporter assays use an easily measured gene product as a stand-in for the process of interest.

The test system of series [22] is MCF7. The experiment in a line: Inhibition of colony formation in human MCF7 cells at 2.83 uM incubated for 14 days with replacement of medium for every 3 or 4 days by crystal violet staining based visual analysis relative to control. The series is classed as functional.
Series [23] relates to MDA-MB-231. The series can be described thus: Inhibition of cell migration of human MDA-MB-231 cells at 5.40 uM incubated for 48 hrs by scratch wound healing assay. It is filed as functional, cell-based.

One may read the IC50 as the midpoint of a concentration-inhibition curve. Usually inhibition stands for the relative decrease from the control value, in per cent.

Each structure is given as a SMILES string. Active and inactive are the calls of the source. No cut-off for these calls is given here.

Consider `O=C(CCC(=O)N1CCN(CCCN2c3ccccc3Sc3ccc(C(F)(F)F)cc32)CC1)OCCCCOc1no[n+]([O-])c1S(=O)(=O)c1ccccc1`, for which the IC50 in the series with SUM-159-PT [1] was found to be 2930 nM; in the series with MDA-MB-231 [2], 10200 nM; with MCF7 [3] it was 1350 nM; in the series with SK-BR-3 it was 64600 nM; in the series with KG-1a, 2930 nM. Moreover, the “Ratio IC50” value is given as 6 - 15 in the series on SUM-159-PT [4] and 4 - 13 in the series on MCF7 [5]. Besides, the survival at 24 h, 250 µM in series [6] amounted to 19.4%.
As to `O=C(CCC(=O)N1CCN(CCCN2c3ccccc3Sc3ccccc32)CC1)OCCCCOc1no[n+]([O-])c1S(=O)(=O)c1ccccc1`, the IC50 in the series on SUM-159-PT [1] amounted to 1630 nM; in the series on MDA-MB-231 [2] it was 11200 nM; with MCF7 [3] it was 2940 nM; in the series with SK-BR-3, 13600 nM; with KG-1a, 1630 nM. The “Ratio IC50” value is on record as 6 - 15 in the series on SUM-159-PT [4] and 4 - 13 with MCF7 [5]. Moreover, the survival at 24 h, 250 µM in series [6] was determined as 64.5%. The same compound came in with an inhibition at 0.18 µM with MCF7 [7] of 64.4%. Also, 0.37 µM produced 33.1% inhibition with MCF7 [8]. In the series on MCF7 [9], this compound yielded an inhibition at 0.74 µM of 11.6%. The inhibition result (in the series with MCF7 [10]; with SUM-159-PT [11]; in the series on MDA-MB-231 [15]; in [16]) was “Dose-dependent effect” throughout. Besides, the Activity in the series with SUM-159-PT [12] was 19; with SUM-159-PT [13], 8; in the series on SUM-159-PT [14] it was 1; in the series with MDA-MB-231 [17], “Dose-dependent effect”.
As for `CSc1ccc2c(c1)N(CCCN1CCN(C(=O)CCC(=O)OCCCCOc3no[n+]([O-])c3S(=O)(=O)c3ccccc3)CC1)c1ccccc1S2`, the IC50 was 1140 nM with SUM-159-PT [1]; 3620 nM with MDA-MB-231 [2]; 840 nM in the series with MCF7 [3]; 9720 nM in the series with SK-BR-3; 1140 nM in the series on KG-1a. The figures for the “Ratio IC50” value with SUM-159-PT [4], with MDA-MB-231 [18] and in the series on MCF7 [5] were 6 - 15, 6 and 4 - 13, respectively. In [6], the survival at 24 h, 250 µM came out at 25.8%.
Consider `O=C(CCC(=O)N1CCN(CCCN2c3ccccc3Sc3ccccc32)CC1)OCCOc1no[n+]([O-])c1S(=O)(=O)c1ccccc1`, for which the IC50 with SUM-159-PT [1] came out at 1780 nM; in the series on MDA-MB-231 [2] it was 1600 nM; in the series on MCF7 [3], 3230 nM; in the series on SK-BR-3, 2220 nM; in the series with KG-1a it was 1780 nM. Moreover, the survival at 24 h, 250 µM in [6] is 51.6%. In addition, the inhibition at 0.2 µM in the series with MCF7 [19] was found to be 10.3%. The inhibition result in the series with MCF7 [10] and with SUM-159-PT [11] was “Dose-dependent effect” each time. Further, the Activity with SUM-159-PT [12] was 8; with SUM-159-PT [13], 2; with SUM-159-PT [14], 1; in the series with MDA-MB-231 [17], “Dose-dependent effect”. In addition, the inhibition entry (in the series with MDA-MB-231 [20]; in series [21]) was “Active” in each case.
In the case of `CN1CCN(CCCN2c3ccccc3Sc3ccc(C(F)(F)F)cc32)CC1` [TRIFLUOPERAZINE], the IC50 in the series on SUM-159-PT [1] came out at 17000 nM; with MDA-MB-231 [2], 21600 nM; with MCF7 [3], 11300 nM; with SK-BR-3, 15900 nM; with KG-1a, 4580 nM. Further, at 2.83 µM the inhibition in the series with MCF7 [22] was 63.8%. In addition, the Activity in the series with SUM-159-PT [14] is given as 12. In the series with MDA-MB-231 [23], the inhibition entry was “Active”.
